Experimental data reported in PubChem BioAssay (NCI).
Several values for one entry are separate records, joined by “and”; a condition that tells them apart may be missing. Identical values can stand only once.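 All cell lines were grown in 96-well plates and treated with compound for 48 hours. Here, GI50 denotes the concentration required for 50% inhibition of growth. TGI denotes the concentration required for complete inhibition of growth.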

Experiments:
Assay in all cases: NCI anticancer screen, dose series, 48 h
LXFL 529 NSCLC = system: LXFL 529 NSCLC
M19-MEL melanoma = system: M19-MEL melanoma
KM20L2 colon = system: KM20L2 colon
DMS 273 small cell lung = system: DMS 273 small cell lung
EKVX NSCLC = system: EKVX NSCLC
SNB-78 CNS = system: SNB-78 CNS
SK-MEL-2 melanoma = system: SK-MEL-2 melanoma
DU-145 prostate = system: DU-145 prostate
HS 578T breast = system: HS 578T breast
PC-3 prostate = system: PC-3 prostate

Compound	TGI (LXFL 529 NSCLC) [µM]	TGI (M19-MEL melanoma) [µM]	TGI (KM20L2 colon) [µM]	TGI (DMS 273 small cell lung) [µM]	TGI (EKVX NSCLC)	TGI (SNB-78 CNS) [µM]	TGI (SK-MEL-2 melanoma)	TGI (DU-145 prostate) [µM]	TGI (HS 578T breast) [µM]	TGI (PC-3 prostate) [µM]	GI50 (LXFL 529 NSCLC) [µM]	GI50 (M19-MEL melanoma) [µM]	GI50 (KM20L2 colon) [µM]	GI50 (DMS 273 small cell lung) [µM]	GI50 (EKVX NSCLC) [µM]	GI50 (SNB-78 CNS) [µM]	GI50 (SK-MEL-2 melanoma) [µM]	GI50 (DU-145 prostate) [µM]	GI50 (HS 578T breast) [µM]	GI50 (PC-3 prostate) [µM]
CCOC(OC1=C(C#N)CCC1)C(CC)[Se]c1ccccc1 (stereo not drawn)	48.5	30.3	64.7	24.2	89 µM	> 100	80.8 µM	–	–	–	–	–	–	–	–	–	–	–	–	–
COc1ccc(N=Cc2ccc(N(CCC#N)CCC#N)cc2)cc1	> 84.5	> 91.8	> 100	> 100	> 100 µM	> 100	> 84.2 µM	> 100	> 100	> 100	–	–	–	–	–	–	–	–	–	–
Cn1nnnc1[N-]Cc1ccccc1.[Au+].c1ccc([PH+](c2ccccc2)c2ccccc2)cc1	2.79	25.3	29.8	> 100	5.78 µM	> 66.9	9.45 µM	–	–	–	1.45	3.32	8.56	11.1	4.08	6.86	2.98	–	–	–
O=C(O)c1[nH]c(C(=O)O)c(CC(F)(F)C(F)(F)C(F)(F)F)c1CC(F)(F)C(F)(F)C(F)(F)F	> 100	> 100	> 100	> 100	> 100 µM	> 100	–	–	–	–	–	–	–	–	–	–	–	–	–	–
CC1(C)OC2C(=O)OC(COCc3ccccc3)C2O1 (stereo not drawn)	> 100	> 100	> 100	> 100	> 100 µM	> 100	> 100 µM	–	–	–	–	–	–	–	–	–	–	–	–	–
Cn1cc(NC(=O)c2cc(NC(=O)CCCCCC(=O)Nc3cc(C(=O)Nc4cc(C(=O)NCCC(=N)N)n(C)c4)n(C)c3)cn2C)cc1C(=O)NCCC(=N)N	> 100	92.8	> 100	> 100	> 100 µM	> 100	–	–	–	–	–	–	–	–	–	–	–	–	–	–
CCCCS(=N)(=O)CC[C@H](N)C(=O)O (stereo partly drawn)	–	> 5000	> 5000	> 5000	1720 µM and 3890 µM	> 5000	> 10000 µM	> 10000	> 10000	> 10000	–	–	–	–	615	–	> 7640	> 10000	> 8500	> 10000
Nc1ccc2c(c1)[O][Sn]([c]1ccccc1)([c]1ccccc1)[O]C2=O	3.12	23.9	31.9	31.1	25 µM	23.4	17.6 µM	28.9	22.2	24.9	1.51	11	18	16.6	10.6	5.31	6.19	15.5	4.06	12.4
CN(C)CCNC(=O)c1cc([N+](=O)[O-])cc2ccc(-c3ccccc3)nc12	58	20	31.2	31.7	> 71.4 µM	> 60.9	28.7 µM	–	–	–	–	–	–	–	–	–	–	–	–	–
COc1ccc(/C=[N+](\[O-])[C@H](COCc2ccccc2)c2ccccc2)cc1	> 100	–	> 100	> 100	> 100 µM	> 100	> 100 µM	–	–	–	–	–	–	–	–	–	–	–	–	–
c1cc2c(cnc3cscc32)s1	–	> 100	–	> 100	–	> 100	> 100 µM	–	–	–	–	–	–	–	–	–	–	–	–	–
Cc1c2ncccc2c(C)c2c1[nH]c1ccccc12	24.8	26.1	22.6	19	30.7 µM	36	41.4 µM	–	–	–	–	–	–	–	–	–	–	–	–	–
CC(SC1=CC(=O)c2c(O)ccc(O)c2C1=O)C(=O)O (stereo not drawn)	> 51.6	–	> 100	> 100	> 100 µM	> 79.1	> 100 µM	–	–	–	–	–	–	–	–	–	–	–	–	–
[Cl][Sn]([c]1ccccc1)[c]1ccccc1	3.13	–	30.4	34	15.5 µM	31	11.9 µM	–	–	–	1.4	–	14.9	10	6.57	6.96	2.65	–	–	–
COc1cc2ccc3c4cc(OC)c(OCc5ccccc5)cc4cnc3c2cc1OC	> 100	> 100	> 100	–	> 100 µM	> 100	> 100 µM	–	–	–	–	–	–	–	–	–	–	–	–	–
c1cncc(C2c3[nH]c4ccccc4c3CCN2CCN2CCCCC2)c1 (stereo not drawn)	> 100	> 100	> 100	> 100	> 100 µM	> 100	–	–	–	–	–	–	–	–	–	–	–	–	–	–
CC[C@@]1(OC(=O)CCC(=O)O)C(=O)OCc2c1cc1n(c2=O)Cc2cc3ccccc3nc2-1	> 45.4	1.69	33.8	0.676	> 100 µM	> 100	4.96 µM	1.51	> 100	> 100	–	–	–	–	–	–	–	–	–	–
CCCN(CCCCC(NC(C)=O)C(=O)NCc1ccccc1)C(=O)NC (stereo not drawn)	> 100	> 100	> 100	> 100	> 100 µM	> 100	> 100 µM	–	–	–	–	–	–	–	–	–	–	–	–	–
CC(=O)O/C(C)=C\C(=O)O/N=C(\N)c1ccc(C)cc1	59.9	–	> 100	> 100	> 100 µM	70.9	72.3 µM	–	–	–	–	–	–	–	–	–	–	–	–	–
O=C(N=Nc1c(O)[nH]c2ccccc12)c1ccccc1O	> 100	> 100	> 100	–	> 100 µM	> 100	63.6 µM	–	–	–	–	–	–	–	–	–	–	–	–	–
CC(O)C(NC(=O)C(CS)NC(=O)C(CO)NC(=O)C(CCCCN)NC(=O)C(Cc1c[nH]c2ccccc12)NC(=O)C(Cc1ccc(O)cc1)NC(=O)C(CS)NC(=O)C(N)Cc1ccccc1)C(N)=O (stereo not drawn)	–	70.9	55.8	49.4	> 25 µM and 83.9 µM	96	> 25 µM and 49.5 µM	> 25	> 25	> 25	–	–	–	–	36.1	–	22	–	–	–
CC(C)(C)C([O-])=C1C(=O)c2ccccc2C1=O.CC(C)(C)C([O-])=C1C(=O)c2ccccc2C1=O.CC[O-].CC[O-].[Ti+4]	> 100	> 100	> 100	> 100	63.9 µM	93.8	85.2 µM	–	–	–	39.9	31.5	29.2	31.2	21.7	28.4	25.8	–	–	–
CC(C)(C)N=CN1CCC(C(c2ccccc2)c2ccccc2)CC1	–	> 100	32.2	> 100	> 100 µM	> 100	> 100 µM	–	–	–	–	–	–	–	–	–	–	–	–	–
CCOC(=O)C(=O)Nc1c(C)cccc1CC	> 100	> 100	> 100	–	> 100 µM	> 100	> 100 µM	–	–	–	–	–	–	–	–	–	–	–	–	–
O=c1oc2c3ccc4ccccc4c3n(Cc3nc4ccccc4[nH]3)c2c2ccccc12	> 100	> 100	> 100	–	> 31.6 µM	> 100	> 100 µM	–	–	–	–	–	–	–	–	–	–	–	–	–
O=C1c2cccc3cc([N+](=O)[O-])cc(c23)C(=O)N1CCCN1CCN(CCCN2C(=O)c3cccc4cc([N+](=O)[O-])cc(c34)C2=O)CC1	> 100	2.56	> 100	–	> 100 µM	12.9	5.34 µM	–	–	–	–	–	–	–	–	–	–	–	–	–
CCCCCCCCCCCC(=O)C1=C(O)C(O)CCC1=O (stereo not drawn)	53.9	44.6	24.9	21.3	34.1 µM	55.8	25 µM	–	–	–	–	–	–	–	–	–	–	–	–	–
c1ccc(COc2ccc3[nH]c4c(ncc5[nH]c6ccccc6c54)c3c2)cc1	29.5	–	20.4	30.4	32.4 µM	40	30.8 µM	–	–	–	–	–	–	–	–	–	–	–	–	–
CCc1cccc(C)c1NC(=O)CC1Sc2ccccc2NC1=O (stereo not drawn)	> 100	> 100	> 100	> 100	> 100 µM	> 100	> 100 µM	–	–	–	–	–	–	–	–	–	–	–	–	–
CCOC(=O)/C=C(/CN1C(=O)c2ccccc2C1=O)c1ccccc1	> 100	> 100	> 100	> 100	> 100 µM	> 100	> 100 µM	–	–	–	–	–	–	–	–	–	–	–	–	–
